Laboratory results reported in patent publication US8524755B2 (priority 2009, dated 2013).

Key:
[1] = biological target: T1, MAO-B (h) (Homo sapiens, UniProt P27338); assay: Enzyme assay MAO-B (h); assay type: biochemical; conditions: read-out: % Inhibition of Control Values @ 10 μM
T1 construct: human platelets; from tissue; host or cells: human platelets
T1 sequence (P27338 1-520): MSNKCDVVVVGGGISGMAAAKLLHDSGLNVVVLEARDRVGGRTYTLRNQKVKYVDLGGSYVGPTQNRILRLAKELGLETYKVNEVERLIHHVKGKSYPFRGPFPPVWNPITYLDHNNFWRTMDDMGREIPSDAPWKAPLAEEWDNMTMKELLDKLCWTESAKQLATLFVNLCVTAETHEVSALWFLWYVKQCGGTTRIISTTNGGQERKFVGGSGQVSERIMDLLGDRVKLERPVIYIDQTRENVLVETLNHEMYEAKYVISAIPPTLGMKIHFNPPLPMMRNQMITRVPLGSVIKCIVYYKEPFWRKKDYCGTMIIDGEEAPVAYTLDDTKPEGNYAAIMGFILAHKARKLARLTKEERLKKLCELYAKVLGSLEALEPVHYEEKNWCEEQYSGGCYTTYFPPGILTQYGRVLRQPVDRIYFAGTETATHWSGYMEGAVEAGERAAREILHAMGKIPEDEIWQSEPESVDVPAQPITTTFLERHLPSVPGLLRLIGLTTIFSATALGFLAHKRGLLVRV
From the text: The enzyme assays provided below will be familiar to those skilled in the art.
Analysis and Expression of Results: The results are expressed as a percent of control specific activity ((measured specific activity/control specific activity)×100) obtained in the presence of the test compounds.

[2] = biological target: T2, Androgen Receptor (Homo sapiens, UniProt P10275); assay: Androgen Receptor Nuclear Translocation Assay; assay type: cell-based; conditions: for EC50: agonist mode, PathHunter NHRPro cells, 5 h, read-out: AR Nuclear Translocation Assay Agonist Mode EC50; for IC50: antagonist mode, agonist challenge at EC80, read-out: AR Nuclear Translocation Assay Antagonist Mode IC50
T2 construct: expressed in transfected cells; host or cells: PathHunter NHRPro cell lines
T2 sequence (P10275 1-920): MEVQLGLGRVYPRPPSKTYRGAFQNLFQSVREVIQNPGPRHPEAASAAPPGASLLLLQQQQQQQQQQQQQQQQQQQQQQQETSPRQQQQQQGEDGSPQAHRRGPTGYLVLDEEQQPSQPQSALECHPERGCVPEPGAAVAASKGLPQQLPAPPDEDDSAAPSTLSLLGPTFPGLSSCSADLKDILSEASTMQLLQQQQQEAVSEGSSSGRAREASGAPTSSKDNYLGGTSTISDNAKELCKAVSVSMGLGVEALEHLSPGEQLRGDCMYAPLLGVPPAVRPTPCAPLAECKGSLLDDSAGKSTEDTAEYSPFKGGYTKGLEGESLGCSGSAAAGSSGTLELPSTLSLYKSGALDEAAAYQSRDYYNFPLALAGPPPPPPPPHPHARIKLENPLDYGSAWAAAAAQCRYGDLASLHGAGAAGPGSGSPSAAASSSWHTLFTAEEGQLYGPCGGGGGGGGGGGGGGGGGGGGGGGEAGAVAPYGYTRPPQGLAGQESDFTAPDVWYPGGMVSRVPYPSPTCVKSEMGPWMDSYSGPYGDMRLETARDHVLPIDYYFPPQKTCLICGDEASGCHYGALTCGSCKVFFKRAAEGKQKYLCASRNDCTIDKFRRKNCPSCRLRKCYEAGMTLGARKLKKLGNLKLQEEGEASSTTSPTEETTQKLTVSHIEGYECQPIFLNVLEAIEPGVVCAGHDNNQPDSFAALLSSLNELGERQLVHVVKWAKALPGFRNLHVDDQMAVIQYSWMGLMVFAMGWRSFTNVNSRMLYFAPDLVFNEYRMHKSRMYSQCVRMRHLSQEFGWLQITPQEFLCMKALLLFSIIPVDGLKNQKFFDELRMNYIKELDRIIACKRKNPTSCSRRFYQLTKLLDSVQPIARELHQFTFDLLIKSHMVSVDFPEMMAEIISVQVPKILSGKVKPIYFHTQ
Experimental: Once it was established that the cells were healthy and growing normally, cells were transferred from flasks using trypsin-free cell dissociation buffer and seeded into white walled clear bottom 384-well microplates for compound profiling. For profiling, cells were seeded at a density of 10,000 cells per well in a total volume of 50 μL and were allowed to adhere and recover overnight prior to compound addition. Media contained charcoal-dextran filtered serum to reduce the level of hormones present.
Agonist Format: Intermediate dilution of compound stocks were generated such that 5.5 μL of 10X compound could be added to each well with a final DMSO concentration of 1% of total volume. For profiling compound in agonist mode, the cells were incubated in the presence of compound at 37° C. for 5 h.
Antagonist Format: Agonist dose curves were performed to determine the EC80 value for the following antagonist testing with compounds. 5.5 μL of 10× agonist was added to each well with an equal concentration of vehicle present. EC80 agonist concentration was determined directly from agonist dose curve. For antagonist determination, cells were pre-incubated with antagonist followed by agonist challenge at the EC80 concentration: 5.5 μL of 10× compound added to cells and incubated at 37° C. for 1 h; 5.5 μL of 11× EC80 agonist added to cells and incubated at 37° C. for 5 h.
Signal Detection: After appropriate compound incubation, assay signal was generated through a single addition of 30 μL (50% v/v) of PathHunter Detection reagent cocktail for agonist and antagonist assays respectively followed by 1 h incubation at room temperature. Microplates were read following signal generation with a PerkinElmer ViewLux™ instrument for chemiluminescent signal detection.
Data Analysis: Dose curves in the presence and absence of compound were plotted using GraphPad Prism.

[3] = biological target: T3, β1 (h) (Homo sapiens, UniProt P08588); assay: Binding β1 (h) (ag); conditions: read-out: % Inhibition of Control Specific Binding @ 10 μM
T3 construct: expressed in transfected cells; host or cells: HEK-293 cells
T3 sequence (P08588 whole entry): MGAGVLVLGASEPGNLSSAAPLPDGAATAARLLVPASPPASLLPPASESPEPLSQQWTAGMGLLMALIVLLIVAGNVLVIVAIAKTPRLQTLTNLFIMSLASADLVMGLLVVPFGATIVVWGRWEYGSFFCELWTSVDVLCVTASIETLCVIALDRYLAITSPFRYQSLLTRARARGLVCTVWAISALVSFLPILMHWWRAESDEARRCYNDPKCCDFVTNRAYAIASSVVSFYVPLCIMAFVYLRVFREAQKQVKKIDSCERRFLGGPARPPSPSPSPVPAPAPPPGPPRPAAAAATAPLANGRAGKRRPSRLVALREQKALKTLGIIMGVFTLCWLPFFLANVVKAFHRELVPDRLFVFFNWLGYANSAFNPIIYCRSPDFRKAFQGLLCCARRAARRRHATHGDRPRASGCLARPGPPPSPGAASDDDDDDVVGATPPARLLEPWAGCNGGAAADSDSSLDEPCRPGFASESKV
Experimental: Radioligand binding assay methods utilized to measure the activity of compounds of the invention will be familiar to those skilled in the art. In each assay case, the assay components such as, for example, the cell-type, ligand, reference compound and the like, will be familiar to practitioners of such an assay.
Analysis and Expression of Results: Compounds of the invention were tested in the biochemical assays and percent inhibition of specific binding was determined. The specific ligand binding to the receptors is defined as the difference between the total binding and the nonspecific binding determined in the presence of an excess of unlabelled ligand. The results are expressed as a percent inhibition of control specific binding (100−((measured specific binding/control specific binding)×100)) obtained in the presence of test compounds.

Structure (SMILES) | inhibition at 10 µM [1] | EC50 [2] | IC50 [2] | inhibition at 10 µM [3]
CC1(C)C(=O)N(c2ccc(C#N)c(C(F)(F)F)c2)C(=S)N1c1ccc(C(=O)O)c(F)c1 [(MI), 4-(3-(4-cyano-3-(trifluoromethyl)phenyl)-5,5-dimethyl-4-oxo-2-thioxoimidazolidin-1-yl)-2-fluorobenzoic acid] | 8% | > 60 µM | > 60 µM | -2%
CC1(C)C(=O)N(c2ccc(C#N)c(C(F)(F)F)c2)C(=S)N1c1ccc(C(N)=O)c(F)c1 [(MII), 4-(3-(4-Cyano-3-(trifluoromethyl)phenyl)-5,5-dimethyl-4-oxo-2-thioxoimidazolidin-1-yl)-2-fluorobenzamide] | -4% | > 60 µM | 3.2 µM | -7%
CC1(C)C(=O)N(c2ccc(C#N)c(C(F)(F)F)c2)C(=O)N1c1ccc(C(N)=O)c(F)c1 [(MIII), 4-(3-(4-cyano-3-(trifluoromethyl)phenyl)-5,5-dimethyl-2,4-dioxoimidazolidin-1-yl)-2-fluorobenzamide] | -5% | > 60 µM | 16.2 µM | 2%
CNC(=O)c1ccc(N2C(=O)N(c3ccc(C#N)c(C(F)(F)F)c3)C(=O)C2(C)C)cc1F [(MIV), 4-(3-(4-cyano-3-(trifluoromethyl)phenyl)-5,5-dimethyl-2,4-dioxoimidazolidin-1-yl)-2-fluoro-N-methylbenzamide] | 11% | > 60 µM | 11.6 µM | 3%
